Where two headings read alike, the source gives them in different places.
What was measured:
MDCK-MDR1 cells [1] = settings: MDCK-MDR1, pH 7.4
MDCK-MDR1 cells [2] = settings: cited from earlier work
[3] = no reference given; cited from earlier work
[4] = determined 25 °C; etoposide acidic, acebutolol basic; ref Avdeef, 2012; cited from earlier work
[5] = Calculation of neutral fraction (fn)
P-gp (MDR1) [6] = experiment: in vitro; settings: dog
in vitro = settings: dog
MDCK-II-MDR1 cells [7] = settings: intrinsic membrane permeability, calculated from Papp, A⟶B with elacridar
Procedure: Briefly, cells (passage 20–40) were seeded onto 12-well PET inserts (CellQART, Northeim, Germany; pore size: 0.4 μm; filter thickness: 11.5 μm, 100×10^6 pores/cm^2) at a density of 1.5×10^5 cells/insert. […] One day before the experiments, the cell medium was refreshed. For P0 determination, inserts were pre-incubated with the P-gp inhibitor elacridar (2 μM) for 30 min in HBSS pH 7.4. The transport rates in both directions of the test compounds were determined in duplicate or triplicate for 4–5 different pH values between pH 5 and pH 9. The transport buffer was HBSS buffered with 10 mM MES for pH 5 and 6, 25 mM HEPES for pH 7, 7.4 and 8, and 10 mM TAPS for pH 9. Stock solutions were prepared in the transport buffer and pre-warmed to 37 °C. Additional stock solutions with 2 μM elacridar were prepared at suitable pH values to measure P0 values in tandem. The pH of all buffer and stock solutions, as well as the pH of all samples after experiment completion, was controlled with a rapid pH automated pH meter (Hudson Robotics, Inc., Springfield, NJ, USA). Inserts were used in 12-well plates (TPP Techno Plastic Products AG, Trasadingen, Switzerland). […] Timestep length was determined individually for each compound and direction measured to ensure sink conditions. […]
to ensure that measured transport rates would not be affected by active efflux .

MDCK-II-MDR1 cells [8] = system: MDCK-II-MDR1 cells
P-gp (MDR1) [9] = experiment: in vitro; settings: dog, MDCK-MDR1, Papp, B⟶A

CC(C)N(CCC(c1ccccc1)c1cc(CO)ccc1O)C(C)C (centres unmarked) [5-Hydroxymethyl Tolterodine]
Factor difference (MDCK-MDR1 cells [1]): 6
Papp, B⟶A (MDCK-MDR1 cells [2]; MDCK-MDR1, pH 7.4): 6.3e-05 cm/s
Papp, inhibitor (MDCK-MDR1 cells [2]; MDCK-MDR1, pH 7.4): 1.1e-05 cm/s

COc1ccc2c(c1)c(CC(=O)O)c(C)n2C(=O)c1ccc(Cl)cc1 [Indomethacin]
logKhex/water [3]: 0.58

COc1cc([C@@H]2c3cc4c(cc3[C@@H](O[C@@H]3O[C@@H]5CO[C@@H](C)O[C@H]5[C@H](O)[C@H]3O)[C@H]3COC(=O)[C@H]23)OCO4)cc(OC)c1O [Etoposide]
pKa [4]: 8.53
fn ([5]; neutral fraction at pH 7.4): 84%
Papp (P-gp (MDR1) [6]; MDCK-MDR1, pH 6): 0.12 ± 0.02 ×10⁻⁶ cm/s
Papp B→A (P-gp (MDR1) [6]; MDCK-MDR1, pH 6): 3.16 ± 0.19 ×10⁻⁶ cm/s
efflux ratio (P-gp (MDR1) [6]; MDCK-MDR1, pH 6): 26.8
Papp (P-gp (MDR1) [6]; MDCK-MDR1, pH 7.4): 0.11 ± 0.02 ×10⁻⁶ cm/s
Papp B→A (P-gp (MDR1) [6]; MDCK-MDR1, pH 7.4): 4.05 ± 1.18 ×10⁻⁶ cm/s
efflux ratio (P-gp (MDR1) [6]; MDCK-MDR1, pH 7.4): 37.6
Papp (P-gp (MDR1) [6]; MDCK-MDR1, pH 8): 0.14 ± 0.04 ×10⁻⁶ cm/s
Papp B→A (P-gp (MDR1) [6]; MDCK-MDR1, pH 8): 2.8 ± 0.08 ×10⁻⁶ cm/s
efflux ratio (P-gp (MDR1) [6]; MDCK-MDR1, pH 8): 20.2
Papp (P-gp (MDR1) [6]; MDCK-MDR1, pH 9): 0.19 ± 0.08 ×10⁻⁶ cm/s
Papp B→A (P-gp (MDR1) [6]; MDCK-MDR1, pH 9): 0.43 ± 0.03 ×10⁻⁶ cm/s
efflux ratio (P-gp (MDR1) [6]; MDCK-MDR1, pH 9): 2.2
recovery (in vitro; MDCK-MDR1, pH 6): 92 to 97%
recovery (in vitro; MDCK-MDR1, pH 7.4): 98 to 108%
recovery (in vitro; MDCK-MDR1, pH 8): 83 to 98%
recovery (in vitro; MDCK-MDR1, pH 9): 60 to 71%
LogP0 (MDCK-II-MDR1 cells [7]): -6.3 P in cm/s
Papp, inhibitor (MDCK-MDR1 cells [2]; with inhibitor, pH 7.4 iso-method, ref Troutman and Thakker (2003)): 6.6e-07 cm/s
Papp, inhibitor (MDCK-MDR1 cells [2]; with inhibitor, pH 7.4 iso-method, ref Wang et al. (2005)): 3e-07 cm/s
Papp, B⟶A (MDCK-MDR1 cells [2]; without inhibitor, pH 7.4 iso-method, ref Troutman and Thakker (2003)): 1.04e-05 cm/s
Papp, B⟶A (MDCK-MDR1 cells [2]; without inhibitor, pH 7.4 iso-method, ref Wang et al. (2005)): 1.8e-06 cm/s
logPapp, A⟶B (MDCK-II-MDR1 cells [8]; pH 6, iso-pH method): -6.93 P in cm/s
logPapp, B⟶A (MDCK-II-MDR1 cells [8]; pH 6, iso-pH method): -5.50 P in cm/s
logPapp, A⟶B (MDCK-II-MDR1 cells [8]; pH 7.4, iso-pH method): -6.97 P in cm/s
logPapp, B⟶A (MDCK-II-MDR1 cells [8]; pH 7.4, iso-pH method): -5.39 P in cm/s
logPapp, A⟶B (MDCK-II-MDR1 cells [8]; pH 8, iso-pH method): -6.86 P in cm/s
logPapp, B⟶A (MDCK-II-MDR1 cells [8]; pH 8, iso-pH method): -5.55 P in cm/s
logPapp, A⟶B (MDCK-II-MDR1 cells [8]; pH 9, iso-pH method): -6.71 P in cm/s
logPapp, B⟶A (MDCK-II-MDR1 cells [8]; pH 9, iso-pH method): -6.37 P in cm/s

CC[C@@H](CO)NC(=O)[C@@H]1C=C2c3cccc4c3c(cn4C)C[C@H]2N(C)C1 [Methysergide]
Factor difference (MDCK-MDR1 cells [1]; dog): 2
Papp, B⟶A (MDCK-MDR1 cells [2]; MDCK-MDR1, pH 7.4): 75.3
Papp, inhibitor (MDCK-MDR1 cells [2]; MDCK-MDR1, pH 7.4): 39.4

COc1cc2c(c(OC)c1OC)-c1ccc(OC)c(=O)cc1[C@@H](NC(C)=O)CC2 [Colchicine]
Factor difference (MDCK-MDR1 cells [1]; dog): 7
Papp (P-gp (MDR1) [9]): 6.33 ×10⁻⁶ cm/s
fn ([5]; neutral fraction at pH 8): 100%
Papp (P-gp (MDR1) [6]; MDCK-MDR1, pH 5): 0.52 ± 0.15 ×10⁻⁶ cm/s
Papp B→A (P-gp (MDR1) [6]; MDCK-MDR1, pH 5): 2.12 ± 0.14 ×10⁻⁶ cm/s
Papp (P-gp (MDR1) [6]; MDCK-MDR1, pH 6): 0.2 ± 0.04 ×10⁻⁶ cm/s
Papp B→A (P-gp (MDR1) [6]; MDCK-MDR1, pH 6): 4.42 ± 0.33 ×10⁻⁶ cm/s
Papp (P-gp (MDR1) [6]; MDCK-MDR1, pH 7): 0.16 ± 0.04 ×10⁻⁶ cm/s
Papp B→A (P-gp (MDR1) [6]; MDCK-MDR1, pH 7): 5.03 ± 0.58 ×10⁻⁶ cm/s
Papp (P-gp (MDR1) [6]; MDCK-MDR1, pH 8): 0.2 ± 0.05 ×10⁻⁶ cm/s
Papp B→A (P-gp (MDR1) [6]; MDCK-MDR1, pH 8): 6.33 ± 0.62 ×10⁻⁶ cm/s
Papp (P-gp (MDR1) [6]; MDCK-MDR1, pH 9): 0.41 ± 0.06 ×10⁻⁶ cm/s
Papp B→A (P-gp (MDR1) [6]; MDCK-MDR1, pH 9): 5.89 ± 1.14 ×10⁻⁶ cm/s
recovery (in vitro; MDCK-MDR1, pH 5): 100 to 120%
recovery (in vitro; MDCK-MDR1, pH 6): 78 to 109%
recovery (in vitro; MDCK-MDR1, pH 7): 98 to 110%
recovery (in vitro; MDCK-MDR1, pH 8): 96 to 102%
recovery (in vitro; MDCK-MDR1, pH 9): 92 to 100%
LogP0 (MDCK-II-MDR1 cells [7]): -5.9 P in cm/s
Papp, B⟶A (MDCK-MDR1 cells [2]; MDCK-MDR1, pH 7.4): 1.19e-05 cm/s
Papp, inhibitor (MDCK-MDR1 cells [2]; MDCK-MDR1, pH 7.4): 1.64e-06 cm/s

— PMC11637191, “The pH-dependence of efflux ratios determined with bidirectional transport assays across cellular monolayers” (International Journal of Pharmaceutics: X, 2024)
